# Test results from patent publication US8383616B2, “Aryl isoxazole compounds with antitumoural activities” (Sigma-Tau Industrie Farmaceutiche Riunite SpA, priority 2008, dated 2013).
# Structures can show the parent of a compound that is named as a salt.
# What was measured:
# [1] = biological target: T1, Hsp90 (Homo sapiens, UniProt P07900); assay: Fluorescence polarization (FP) binding assay, displacement of GM-BODIPY; conditions: GM-BODIPY tracer, 125 nM Hsp90, 4 h at 4° C.; read-out: F.P. binding assay IC50
# T1 construct: purchased Stressgen SPP-776
# Procedure: Fluorescence Polarization (FP)
# GM-BODIPY (PerkinElmer, CUSN60342000MG) was previously dissolved in DMSO to obtain 10 mM stock solutions and kept at −20° C. until use.
# The compounds were previously dissolved in DMSO to obtain stock solutions and kept at −20° C. The day of experiment, the compounds were prepared by serial dilutions in HFB. Before each use, 0.1 mg/ml Bovine Gamma globulin and 2 mM DTT were freshly added.
# The plate was mixed on a shaker at 4° C. for 4 hours, and the FP values in mP (millipolarization units) were recorded. […] Curve fitting was performed using Prism GraphPad software program (GraphPad software, Inc., San Diego, Calif.).
# Curve fitting was performed using Prism GraphPad software program (GraphPad software, Inc., San Diego, Calif.).
# [2] = tested on: NCI-H460 non-small cell lung carcinoma cells; assay: Cytotoxicity assay (sulphorodamine B test), NCI-H460; type: cell-based
# Procedure: To evaluate the effect of the compounds on cells survival, the sulphorodamine B test was used. To test the effects of the compounds on cell growth, NCI-H460 non-small cell lung carcinoma cells were used. Tumour cells were grown in RPMI 1640 containing 10% fetal bovine serum (GIBCO).
# (§1) Tumour cells were seeded in 96-well tissue culture plates at approximately 10% confluence and were allowed to attach and recover for at least 24 h. Varying concentrations of the drugs were then added to each well to calculate their IC50 value (the concentration which inhibits the 50% of cell survival). The plates were incubated at 37° C. for 72 h. At the end of the treatment, the plates were washed by removal of the supernatant and addition of phosphate buffered saline (PBS) 3 times. 200 μl PBS and 50 μl of cold 80% trichloroacetic acid (TCA) were added. The plates were incubated on ice for at least 1 h. TCA was removed, the plates were washed 3 times by immersion in distilled water and dried on paper and at 40° C. for 5 min. Then 200 μl of 0.4% sulphorodamine B in 1% acetic acid were added. The plates were incubated at RT for 30 min. Sulphorodamine B was removed, the plates were washed by immersion in 1% acetic acid for 3 times, then they were dried on paper and at 40° C. for 5 min. Then, 200 μl Tris 10 mM were added, the plates were kept under stirring for 20 min. The cell survival was determined as optical density by a Multiskan spectrofluorimeter at 540 nm. The amount of cells killed was calculated as the percentage decrease in sulphorodamine B binding compared with control cultures.
# (§2) The IC50 values were calculated with the “ALLFIT” program.
# (§3) The antiproliferative IC50 was evaluated as drug concentration required for 50% reduction of cell growth as compared with untreated controls after 72-h exposure to the drug. The IC50±SD values reported were calculated by ALLFIT program.
# [3] = tested on: human epithelial carcinoma cell line A431; assay: Cytotoxicity assay (sulphorodamine B test), A431; type: cell-based
# Procedure: as §1, §2
# The antiproliferative activity of novel Hsp90 inhibitors was evaluated on NCI-H460 non-small cell lung carcinoma cells and on a human epithelial carcinoma cell line A431.
# as §3
# [4] = Homo sapiens, NCI-H460, 72-h exposure
# [5] = Homo sapiens, A-431, 72-h exposure
IC50 [1] [nM],Compound,IC50 ([2]; 72-h exposure) [nM],IC50 ([3]; 72-h exposure) [nM],"IC50 [2, 4] [nM]","IC50 [3, 5] [nM]"
< 100,"CCNC(=O)c1noc(-c2cc(Cl)c(O)cc2O)c1NC(C)=O [Example 1, 4-acetylamino-5-(5-chloro-2,4-dihydroxy-phenyl)-isoxazole-3-carboxylic acid ethylamide]",–,–,1000 to 10000,1000 to 10000
100 to 1000,"CCNC(=O)c1noc(-c2cc(Cl)c(O)cc2O)c1NC(=O)c1ccc(OC)cc1 [Example 2, 5-(5-chloro-2,4-dihydroxy-phenyl)-4-(4-methoxy-benzoylamino)-isoxazole-3-carboxylic acid ethylamide]",–,–,1000 to 10000,100 to 1000
100 to 1000,"CCNC(=O)c1noc(-c2cc(Cl)c(O)cc2O)c1NC(=O)c1ccc(OC)c(OC)c1 [Example 3, 5-(5-chloro-2,4-dihydroxy-phenyl)-4-(3,4-dimethoxy-benzoylamino)-isoxazole-3-carboxylic acid ethylamide]",–,–,1000 to 10000,100 to 1000
100 to 1000,"CCNC(=O)c1noc(-c2cc(Cl)c(O)cc2O)c1NC(=O)c1cc(OC)c(OC)c(OC)c1 [Example 4, 5-(5-chloro-2,4-dihydroxy-phenyl)-4-(3,4,5-trimethoxy-benzoylamino)-isoxazole-3-carboxylic acid ethylamide]",–,–,100 to 1000,100 to 1000
< 100,"CCNC(=O)c1noc(-c2cc(Cl)c(O)cc2O)c1NC(=O)C(C)(C)C [Example 5, 5-(5-chloro-2,4-dihydroxy-phenyl)-4-(2,2-dimethyl-propionylamino)-isoxazole-3-carboxylic acid ethylamide]",–,–,100 to 1000,< 100
100 to 1000,"CCNC(=O)c1noc(-c2cc(Cl)c(O)cc2O)c1NC(=O)C12CC3CC(CC(C3)C1)C2 [Example 6, 4-[(adamantane-1-carbonyl)-amino]-5-(5-chloro-2,4-dihydroxy-phenyl)-isoxazole-3-carboxylic acid ethylamide]",–,–,100 to 1000,100 to 1000
100 to 1000,"C=CC(=O)Nc1c(C(=O)NCC)noc1-c1cc(Cl)c(O)cc1O [Example 7, 4-acryloylamino-5-(5-chloro-2,4-dihydroxy-phenyl)-isoxazole-3-carboxylic acid ethylamide]",–,–,1000 to 10000,100 to 1000
< 100,"CCNC(=O)c1noc(-c2cc(Cl)c(O)cc2O)c1NC(=O)c1sccc1C [Example 8, 5-(5-chloro-2,4-dihydroxy-phenyl)-4-[(3-methyl-thiophene-2-carbonyl)-amino]-isoxazole-3-carboxylic acid ethylamide]",–,–,100 to 1000,< 100
100 to 1000,"CCNC(=O)c1noc(-c2cc(Cl)c(O)cc2O)c1NC(=O)CCN1CCOCC1 [Example 9, 5-(5-chloro-2,4-dihydroxy-phenyl)-4-(3-morpholin-4-yl-propionylamino)-isoxazole-3-carboxylic acid ethylamide]",–,–,100 to 1000,100 to 1000
100 to 1000,"CCNC(=O)c1noc(-c2cc(Cl)c(O)cc2O)c1NC(=O)c1ccc(Br)cc1 [Example 10, 4-(4-bromo-benzoylamino)-5-(5-chloro-2,4-dihydroxy-phenyl)-isoxazole-3-carboxylic acid ethylamide]",–,–,1000 to 10000,100 to 1000
100 to 1000,"CCNC(=O)c1noc(-c2cc(C(C)C)c(O)cc2O)c1NC(=O)c1ccc(OC)cc1 [Example 11, 5-(2,4-dihydroxy-5-isopropyl-phenyl)-4-(4-methoxy-benzoylamino)-isoxazole-3-carboxylic acid ethylamide]",–,–,< 100,–
< 100,"CCNC(=O)c1noc(-c2cc(C(C)C)c(O)cc2O)c1NC(C)=O [Example 12, 4-acetylamino-5-(2,4-dihydroxy-5-isopropyl-phenyl)-isoxazole-3-carboxylic acid ethylamide]",–,–,< 100,–
< 100,"CCNC(=O)c1noc(-c2cc(C(C)C)c(O)cc2O)c1NC(=O)C(C)(C)C [Example 13, 5-(2,4-dihydroxy-5-isopropyl-phenyl)-4-(2,2-dimethyl-propionylamino)-isoxazole-3-carboxylic acid ethylamide]",–,–,< 100,–
< 100,"CCNC(=O)c1noc(-c2cc(C(C)C)c(O)cc2O)c1NC(=O)c1sccc1C [Example 14, 5-(2,4-dihydroxy-5-isopropyl-phenyl)-4-[(3-methyl-thiophene-2-carbonyl)-amino]-isoxazole-3-carboxylic acid ethylamide]",–,–,< 100,< 100
100 to 1000,"CCNC(=O)c1noc(-c2cc(C(C)C)c(O)cc2O)c1NC(=O)CCN1CCOCC1 [Example 15, 5-(2,4-dihydroxy-5-isopropyl-phenyl)-4-(3-morpholin-4-yl-propionylamino)-isoxazole-3-carboxylic acid ethylamide]",–,–,100 to 1000,–
100 to 1000,"CCNC(=O)c1noc(-c2cc(C(C)C)c(O)cc2O)c1NC(=O)CCN1CCN(C)CC1 [Example 16, 4-(3-(4-methylpiperazin-1-yl)propanamido)-N-ethyl-5-(2,4-dihydroxy-5-isopropylphenyl)-isoxazole-3-carboxamide]",–,–,1000 to 10000,100 to 1000
< 100,"CCNC(=O)c1noc(-c2cc(C(C)C)c(O)cc2O)c1NC(=O)c1ccc2cc[nH]c2c1 [Example 17, 1H-indole-6-carboxylic acid [5-(2,4-dihydroxy-5-isopropyl-phenyl)-3-ethylcarbamoyl-isoxazol-4-yl]-amide]",–,–,100 to 1000,100 to 1000
100 to 1000,"CCNC(=O)c1noc(-c2cc(C(C)C)c(O)cc2O)c1NC(=O)C1CCCCC1 [Example 19, 4-(cyclohexanecarbonyl-amino)-5-(2,4-dihydroxy-5-isopropyl-phenyl)-isoxazole-3-carboxylic acid ethylamide]",–,–,< 100,< 100
< 100,"CCNC(=O)c1noc(-c2cc(C(C)C)c(O)cc2O)c1NC(=O)C1CCC(OC)CC1 (stereo not drawn) [Example 23, 5-(2,4-dihydroxy-5-isopropyl-phenyl)-4-[(4-methoxy-cyclohexanecarbonyl)-amino]-isoxazole-3-carboxylic acid ethylamide]",–,–,< 100,–
< 100,"CCNC(=O)c1noc(-c2cc(C(C)C)c(O)cc2O)c1NC(=O)C1CCC(C(C)(C)C)CC1 (stereo not drawn) [Example 24, 4-[(4-tert-butyl-cyclohexanecarbonyl)-amino]-5-(2,4-dihydroxy-5-isopropyl-phenyl)-isoxazole-3-carboxylic acid ethylamide]",–,–,100 to 1000,–
< 100,"CCNC(=O)c1noc(-c2cc(C(C)C)c(O)cc2O)c1NC(=O)[C@H]1CC[C@H](N)CC1 [Example 25, 4-[(trans-4-amino-cyclohexanecarbonyl)-amino]-5-(2,4-dihydroxy-5-isopropyl-phenyl)-isoxazole-3-carboxylic acid ethylamide hydrochloride]",–,–,1000 to 10000,–
< 100,"CCNC(=O)c1noc(-c2cc(C(C)C)c(O)cc2O)c1NC(=O)[C@H]1CC[C@H](CN)CC1 [Example 26, 4-[(trans-4-aminomethyl-cyclohexanecarbonyl)-amino]-5-(2,4-dihydroxy-5-isopropyl-phenyl)-isoxazole-3-carboxylic acid ethylamide hydrochloride]",–,–,1000 to 10000,–
–,"COc1ccc(C(=O)Nc2c(C(=O)N3CC(F)(F)C3)noc2-c2cc(Cl)c(O)cc2O)cc1 [Example 34, 4-(4-methoxybenzamido)-5-(5-chloro-2,4-dihydroxyphenyl)-isoxazol-3-yl-(3,3-difluoroazetidin-lyl)-methanone]",–,–,> 10000,> 10000

Compound,IC50 [1] [nM],IC50 ([2]; 72-h exposure) [nM],IC50 ([3]; 72-h exposure) [nM],"IC50 [2, 4] [nM]","IC50 [3, 5] [nM]"
"5-(2,4-dihydroxy-5-isopropyl-phenyl)-4-(4-morpholin-4-yl-methyl-benzoyl amino)-isoxazole-3-carboxylic acid ethylamide hydrochloride [Example 18]",< 100,< 100,< 100,–,–
